{"source": "patent US5981562A", "about": "“Inhibitors of farnesyl-protein transferase” (Merck & Co., Inc., priority 1997, dated 1999)", "target": "T1, human FPTase (Homo sapiens, UniProt P49354+P49356)", "T1 construct": "made in house", "assay": "In vitro inhibition of human farnesyl-protein transferase", "format": "biochemical", "conditions": "[3H]-FPP, 100 nM Ras-CVIM, 30 min, read-out: IC50 against human FPTase", "note": "Structures can show the parent of a compound that is named as a salt."}
{"smiles": "CC(=O)N(CCNc1cccc(Cl)c1)Cc1cncn1Cc1ccc(C#N)cc1", "note": "[Example 1, N-[1-(4-cyanobenzyl)-5-imidazolylmethyl]-N-[2-((3-chlorophenyl)amino)ethyl]acetamide dihydrochloride]", "values": [{"measurement": "IC50", "result": "< 10", "unit": "µM"}]}
